For series [1], the system named is Streptococcus pyogenes. The series can be described thus: Antibacterial activity against Streptococcus pyogenes MTCC 442 after 24 hrs by broth dilution method. The following applies: MTCC 442, 24 h. It counts as functional.
Series [2] relates to NCI-H226. The series can be described thus: Cytotoxicity against human NCI-H226 assessed as cell growth at high concentration. It counts as functional.
The subject of series [3] is NCI-H322M. The experiment in a line: Cytotoxicity against human NCI-H322M assessed as cell growth at high concentration. It counts as functional.
Series [4] deals with SNB-75. The experiment in a line: Cytotoxicity against human SNB75 assessed as cell growth at high concentration. It counts as functional.
The test system of series [5] is NCI-H23. The series can be described thus: Cytotoxicity against human NCI-H23 assessed as cell growth at high concentration. It counts as functional.
Series [6] has as its system SN12C. The series can be described thus: Cytotoxicity against human SN12C assessed as cell growth at high concentration. Format: functional.
Series [7] has as its system SF-295. The series can be described thus: Cytotoxicity against human SF295 assessed as cell growth at high concentration. It counts as functional.
Series [8] deals with T47D. The experiment in a line: Cytotoxicity against human T47D assessed as cell growth at high concentration. It counts as functional.
Series [9] relates to Hs-578T. The experiment in a line: Cytotoxicity against human Hs 578T assessed as cell growth at high concentration. Format: functional.
Series [10] in a line: Cytotoxicity against human HEL cells. It counts as cell-based.
The test system of series [11] is SK-OV-3. The series can be described thus: Cytotoxicity against human SKOV3 assessed as cell growth at high concentration. Format: functional.
The test system of series [12] is MOLT-4. The experiment in a line: Cytotoxicity against human MOLT4 assessed as cell growth at high concentration. Format: functional.
Series [13] relates to Human immunodeficiency virus 1. The series can be described thus: Antiviral activity against HIV1 3B infected in MT4 cells assessed as inhibition of virus-induced cytopathogenicity by MTT assay. Conditions: Human immunodeficiency virus 1, 3B. It counts as functional, organism-based.
Series [14] has as its system Aspergillus clavatus. The experiment in a line: Antifungal activity against Aspergillus clavatus MTCC 1323 at 250 ug/ml after 74 hrs by Kirby-Bauer method. Format: functional. Conditions: MTCC 1323, 74 h, read-out: IZ.
Series [15] deals with HL-60(TB). The series can be described thus: Cytotoxicity against human HL-60(TB) assessed as cell growth at high concentration. Format: functional.
Series [16] relates to OVCAR-4. The series can be described thus: Cytotoxicity against human OVCAR4 assessed as cell growth at high concentration. It counts as functional.
For series [17], the system named is MDA-MB-231. The experiment in a line: Cytotoxicity against human MDA-MB-231 assessed as cell growth at high concentration. It counts as functional.
Series [18] relates to Human alphaherpesvirus 3. The series can be described thus: Antiviral activity against Varicella-zoster virus Oka expressing thymidine kinase infected in HEL cells assessed as reduction in plaque formation. It counts as functional, organism-based. Conditions: Human alphaherpesvirus 3, strain Oka vaccine.
For series [19], the system named is OVCAR-3. The series can be described thus: Cytotoxicity against human OVCAR3 assessed as cell growth at high concentration. Format: functional.
The test system of series [20] is HT-29. The series can be described thus: Cytotoxicity against human HT-29 assessed as cell growth at high concentration. It counts as functional.
The test system of series [21] is HCT-116. The series can be described thus: Cytotoxicity against human HCT116 assessed as cell growth at high concentration. It counts as functional.
In series [22] the test system is SF-539. The series can be described thus: Cytotoxicity against human SF539 assessed as cell growth at high concentration. It counts as functional.
The subject of series [23] is IGROV-1. The series can be described thus: Cytotoxicity against human IGROV1 assessed as cell growth at high concentration. Format: functional.
The test system of series [24] is Candida albicans. The experiment in a line: Antifungal activity against Candida albicans MTCC 227 at 250 ug/ml after 74 hrs by Kirby-Bauer method. It counts as functional. The following applies: MTCC 227, 74 h, read-out: IZ.

The structures appear in SMILES notation. Converted amounts (≈) assume the structure as drawn.

Compound `Cc1ccc(-[n+]2noc([O-])c2CN2CCNCC2)cc1` gave a minimum inhibitory concentration (MIC) in series [1] of 500 µg/mL (≈ 1820 µM). The Activity in [2] was 84.85%; in series [3], 103.75%; in [4], 145.71%; in series [5], 101.63%; in series [6] it was 91.43%; in series [7] it was 98.69%. Further, the Activity in series [8] is reported as 106.04%; in series [9], 101.05%; in series [11] it was 97.27%; in [12], 117.17%; in series [15], 118.68%; in series [16], 114.7%. The Activity was determined as 86.16% in series [17]; 101.12% in series [19]; 105.21% in [20]; 108.38% in series [21]; 101.2% in series [22]; 101.72% in [23]. Further, in series [10], the CC50 is 46 µg/mL (≈ 168 µM). The IC50 in [13] is greater than 32.6 µg/mL. Besides, the zone of inhibition at 250 µg/mL in series [14] worked out at 24 mm; in series [24], 21 mm. In addition, the EC50 in series [18] was greater than 20 µg/mL.

Consider `Cc1ccc(-[n+]2noc([O-])c2CN2CCN(c3cccc(Cl)c3)CC2)cc1`, for which it took 125 µg/mL (≈ 325 µM) to inhibit growth in series [1] (MIC). Further, the Activity in [2] is recorded as 79.22%; in series [3] it was 106.64%; in series [4], 99.33%; in series [5], 95.83%; in series [6] it was 87.71%; in [7], 78.19%. Besides, the Activity in series [8] stood at 72.96%; in series [9] it was 92.29%; in series [11] it was 99.53%; in series [12], 88.5%; in series [16], 89.31%; in [17], 75.33%. Further, the Activity is 88.44% in series [19]; 90.87% in series [20]; 82.24% in series [21]; 92.15% in series [22]; 98.49% in [23]. For the same compound, in [10], the cytotoxic concentration (CC50) stood at 38.2 µg/mL (≈ 99.3 µM). Also, the IC50 in series [13] is greater than 27.4 µg/mL. Also, the zone of inhibition at 250 µg/mL turned out to be 24 mm in series [14] and 21 mm in series [24]. Besides, the 50% effective concentration (EC50) in series [18] was greater than 20 µg/mL.

These data come from ChEMBL document CHEMBL3044741, “Synthesis of novel biologically active methylene derivatives of sydnones” (Med Chem Res, 2013).
